In ChEMBL document CHEMBL5715954, “Silencing c-Myc translation as a therapeutic strategy through targeting PI3Kδ and CK1ε in hematological malignancies” (Blood, 2017) one finds Activity data, which are given here for 3 compounds.

Set-up in all cases: scale not given: the % may be the effect or the level left
For test [1], the target named is Ribosomal protein S6 kinase alpha-5 (Homo sapiens) (UniProt O75582). In words: Inhibition of human MSK1 assessed as enzyme activity at 1 uM using GRPRTSSFAEG as substrate preincubated for 20 mins followed by [gamma-33P]-ATP addition and measured after 120 mins by radiometric Hot-SpotSM Kinase assay relative to control.
Ribosomal protein S6 kinase alpha-5 (Homo sapiens), sequence (O75582 whole entry, looked up): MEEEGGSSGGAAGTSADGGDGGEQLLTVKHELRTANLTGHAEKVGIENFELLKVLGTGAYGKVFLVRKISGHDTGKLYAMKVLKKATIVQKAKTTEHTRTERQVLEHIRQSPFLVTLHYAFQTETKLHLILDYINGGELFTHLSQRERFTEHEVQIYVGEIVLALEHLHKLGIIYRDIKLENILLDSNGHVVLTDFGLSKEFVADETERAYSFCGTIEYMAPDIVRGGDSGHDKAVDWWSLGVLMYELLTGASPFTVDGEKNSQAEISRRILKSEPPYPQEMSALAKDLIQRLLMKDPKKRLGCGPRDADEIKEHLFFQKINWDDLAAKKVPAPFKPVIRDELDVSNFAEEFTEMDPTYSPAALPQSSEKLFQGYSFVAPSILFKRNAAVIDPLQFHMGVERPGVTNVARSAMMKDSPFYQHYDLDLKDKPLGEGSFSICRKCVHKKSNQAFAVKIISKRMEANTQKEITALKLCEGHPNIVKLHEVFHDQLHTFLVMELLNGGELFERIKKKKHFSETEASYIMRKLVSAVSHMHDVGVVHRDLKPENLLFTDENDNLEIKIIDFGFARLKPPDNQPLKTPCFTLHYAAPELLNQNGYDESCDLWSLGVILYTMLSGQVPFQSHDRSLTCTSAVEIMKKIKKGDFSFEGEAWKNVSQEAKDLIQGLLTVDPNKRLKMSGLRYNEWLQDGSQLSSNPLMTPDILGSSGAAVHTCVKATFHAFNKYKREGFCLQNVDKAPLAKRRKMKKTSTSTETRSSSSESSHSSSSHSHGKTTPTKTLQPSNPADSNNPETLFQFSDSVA
Test [2] concerns the target T1, Serine/threonine-protein kinase D1 (Homo sapiens) (UniProt Q15139).
T1 sequence (whole entry): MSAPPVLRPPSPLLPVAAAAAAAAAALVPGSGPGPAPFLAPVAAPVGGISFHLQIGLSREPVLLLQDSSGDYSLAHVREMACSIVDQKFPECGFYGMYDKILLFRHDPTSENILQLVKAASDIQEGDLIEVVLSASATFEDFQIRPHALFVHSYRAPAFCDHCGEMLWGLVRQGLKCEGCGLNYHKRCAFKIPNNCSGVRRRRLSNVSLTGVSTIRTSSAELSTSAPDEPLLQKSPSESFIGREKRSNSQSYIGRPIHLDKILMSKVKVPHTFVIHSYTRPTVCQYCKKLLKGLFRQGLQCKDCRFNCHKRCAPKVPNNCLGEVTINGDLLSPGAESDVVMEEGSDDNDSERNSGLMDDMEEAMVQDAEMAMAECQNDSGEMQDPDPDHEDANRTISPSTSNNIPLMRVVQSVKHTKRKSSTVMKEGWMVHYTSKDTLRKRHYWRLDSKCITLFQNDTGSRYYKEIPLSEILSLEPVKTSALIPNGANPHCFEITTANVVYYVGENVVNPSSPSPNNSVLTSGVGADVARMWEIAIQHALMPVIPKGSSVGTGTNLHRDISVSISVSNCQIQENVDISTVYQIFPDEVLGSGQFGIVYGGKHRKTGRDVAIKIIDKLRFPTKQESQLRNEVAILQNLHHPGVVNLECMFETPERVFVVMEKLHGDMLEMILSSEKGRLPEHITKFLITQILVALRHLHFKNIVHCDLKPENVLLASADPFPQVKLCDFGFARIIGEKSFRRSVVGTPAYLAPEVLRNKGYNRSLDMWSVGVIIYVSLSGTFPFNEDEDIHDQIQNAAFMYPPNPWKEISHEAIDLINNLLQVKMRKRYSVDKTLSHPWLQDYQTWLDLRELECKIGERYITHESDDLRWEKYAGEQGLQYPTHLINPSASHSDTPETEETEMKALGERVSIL
Briefly: Inhibition of human PKCmu assessed as enzyme activity at 1 uM using KKLNRTLSVA as substrate preincubated for 20 mins followed by [gamma-33P]-ATP addition and measured after 120 mins by radiometric Hot-SpotSM Kinase assay relative to control.

Test [3] concerns the target Epidermal growth factor receptor (Homo sapiens) (UniProt P00533). Briefly: Inhibition of human EGFR assessed as enzyme activity at 1 uM using poly[Glu:Tyr] (4:1) as substrate preincubated for 20 mins followed by [gamma-33P]-ATP addition and measured after 120 mins by radiometric Hot-SpotSM Kinase assay relative to control.
Test [4] deals with Vascular endothelial growth factor receptor 2 (Homo sapiens) (UniProt P35968). Briefly: Inhibition of human KDR assessed as enzyme activity at 1 uM using poly[Glu:Tyr] (4:1) as substrate preincubated for 20 mins followed by [gamma-33P]-ATP addition and measured after 120 mins by radiometric Hot-SpotSM Kinase assay relative to control.
Vascular endothelial growth factor receptor 2 (Homo sapiens), sequence (P35968 whole entry): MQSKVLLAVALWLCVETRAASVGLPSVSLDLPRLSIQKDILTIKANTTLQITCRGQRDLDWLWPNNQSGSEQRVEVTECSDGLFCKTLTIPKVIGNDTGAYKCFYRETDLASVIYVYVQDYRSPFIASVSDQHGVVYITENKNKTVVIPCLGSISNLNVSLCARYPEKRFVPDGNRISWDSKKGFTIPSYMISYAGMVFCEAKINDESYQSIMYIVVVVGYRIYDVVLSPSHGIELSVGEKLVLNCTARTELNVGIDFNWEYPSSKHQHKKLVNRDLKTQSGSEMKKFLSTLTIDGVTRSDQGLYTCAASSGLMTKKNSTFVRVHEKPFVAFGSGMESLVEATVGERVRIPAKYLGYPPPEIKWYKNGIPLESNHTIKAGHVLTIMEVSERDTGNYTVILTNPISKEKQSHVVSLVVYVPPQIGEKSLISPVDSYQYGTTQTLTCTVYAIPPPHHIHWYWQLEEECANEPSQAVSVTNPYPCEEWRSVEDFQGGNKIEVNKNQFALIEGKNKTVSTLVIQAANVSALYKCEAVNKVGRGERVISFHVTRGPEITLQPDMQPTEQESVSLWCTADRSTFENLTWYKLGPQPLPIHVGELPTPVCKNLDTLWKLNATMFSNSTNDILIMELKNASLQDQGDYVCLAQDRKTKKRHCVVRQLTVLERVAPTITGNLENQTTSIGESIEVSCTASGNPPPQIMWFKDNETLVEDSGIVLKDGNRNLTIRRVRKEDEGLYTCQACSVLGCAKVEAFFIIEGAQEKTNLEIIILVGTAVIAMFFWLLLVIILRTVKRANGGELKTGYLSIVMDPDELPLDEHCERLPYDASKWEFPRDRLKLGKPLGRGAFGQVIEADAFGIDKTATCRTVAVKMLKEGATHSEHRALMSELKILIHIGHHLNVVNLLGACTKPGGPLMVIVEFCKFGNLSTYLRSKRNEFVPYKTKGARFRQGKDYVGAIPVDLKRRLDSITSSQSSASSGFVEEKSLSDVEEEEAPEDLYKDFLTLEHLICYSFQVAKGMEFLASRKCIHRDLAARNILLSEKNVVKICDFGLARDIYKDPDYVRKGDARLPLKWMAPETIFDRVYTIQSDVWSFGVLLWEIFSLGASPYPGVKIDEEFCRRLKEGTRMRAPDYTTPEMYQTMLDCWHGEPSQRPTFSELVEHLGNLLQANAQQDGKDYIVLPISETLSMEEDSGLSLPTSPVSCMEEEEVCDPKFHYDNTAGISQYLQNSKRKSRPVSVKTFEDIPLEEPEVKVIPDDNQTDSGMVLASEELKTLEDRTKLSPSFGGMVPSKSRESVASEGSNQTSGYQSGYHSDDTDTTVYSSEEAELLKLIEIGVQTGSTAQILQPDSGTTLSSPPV
Test [5] deals with Tyrosine-protein kinase Yes (Homo sapiens) (UniProt P07947). In words: Inhibition of human YES assessed as enzyme activity at 1 uM using poly[Glu:Tyr] (4:1) as substrate preincubated for 20 mins followed by [gamma-33P]-ATP addition and measured after 120 mins by radiometric Hot-SpotSM Kinase assay relative to control.
Tyrosine-protein kinase Yes (Homo sapiens), sequence (P07947 2-543 limits assumed): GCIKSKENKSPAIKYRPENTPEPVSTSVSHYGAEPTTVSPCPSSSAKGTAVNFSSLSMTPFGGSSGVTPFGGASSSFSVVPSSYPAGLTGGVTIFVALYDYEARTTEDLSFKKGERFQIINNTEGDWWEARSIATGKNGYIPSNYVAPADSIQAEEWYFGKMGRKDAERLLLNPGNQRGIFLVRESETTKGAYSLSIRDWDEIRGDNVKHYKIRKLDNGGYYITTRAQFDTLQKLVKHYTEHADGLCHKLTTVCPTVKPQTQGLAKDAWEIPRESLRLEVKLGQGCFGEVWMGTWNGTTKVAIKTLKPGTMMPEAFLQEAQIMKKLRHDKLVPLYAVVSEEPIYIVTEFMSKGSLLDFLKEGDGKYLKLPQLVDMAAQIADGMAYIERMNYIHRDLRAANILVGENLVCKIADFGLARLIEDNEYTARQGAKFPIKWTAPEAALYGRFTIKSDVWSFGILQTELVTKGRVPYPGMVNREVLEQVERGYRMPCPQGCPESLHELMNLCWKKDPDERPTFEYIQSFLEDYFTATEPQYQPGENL
The target in test [6] is Phosphorylase b kinase gamma catalytic chain, skeletal muscle/heart isoform (Homo sapiens) (UniProt Q16816). Briefly: Inhibition of human PHKg1 assessed as enzyme activity at 1 uM using KKLNRTLSFAEPG as substrate preincubated for 20 mins followed by [gamma-33P]-ATP addition and measured after 120 mins by radiometric Hot-SpotSM Kinase assay relative to control.
The target in test [7] is Mitogen-activated protein kinase kinase kinase kinase 5 (Homo sapiens) (UniProt Q9Y4K4). Briefly: Inhibition of human KHS assessed as enzyme activity at 1 uM using myelin basic protein as substrate preincubated for 20 mins followed by [gamma-33P]-ATP addition and measured after 120 mins by radiometric Hot-SpotSM Kinase assay relative to control.
The target in test [8] is Ephrin type-A receptor 2 (Homo sapiens) (UniProt P29317). In words: Inhibition of human EPHA2 assessed as enzyme activity at 1 uM using poly[Glu:Tyr] (4:1) as substrate preincubated for 20 mins followed by [gamma-33P]-ATP addition and measured after 120 mins by radiometric Hot-SpotSM Kinase assay relative to control.
Ephrin type-A receptor 2 (Homo sapiens), sequence (P29317 whole entry): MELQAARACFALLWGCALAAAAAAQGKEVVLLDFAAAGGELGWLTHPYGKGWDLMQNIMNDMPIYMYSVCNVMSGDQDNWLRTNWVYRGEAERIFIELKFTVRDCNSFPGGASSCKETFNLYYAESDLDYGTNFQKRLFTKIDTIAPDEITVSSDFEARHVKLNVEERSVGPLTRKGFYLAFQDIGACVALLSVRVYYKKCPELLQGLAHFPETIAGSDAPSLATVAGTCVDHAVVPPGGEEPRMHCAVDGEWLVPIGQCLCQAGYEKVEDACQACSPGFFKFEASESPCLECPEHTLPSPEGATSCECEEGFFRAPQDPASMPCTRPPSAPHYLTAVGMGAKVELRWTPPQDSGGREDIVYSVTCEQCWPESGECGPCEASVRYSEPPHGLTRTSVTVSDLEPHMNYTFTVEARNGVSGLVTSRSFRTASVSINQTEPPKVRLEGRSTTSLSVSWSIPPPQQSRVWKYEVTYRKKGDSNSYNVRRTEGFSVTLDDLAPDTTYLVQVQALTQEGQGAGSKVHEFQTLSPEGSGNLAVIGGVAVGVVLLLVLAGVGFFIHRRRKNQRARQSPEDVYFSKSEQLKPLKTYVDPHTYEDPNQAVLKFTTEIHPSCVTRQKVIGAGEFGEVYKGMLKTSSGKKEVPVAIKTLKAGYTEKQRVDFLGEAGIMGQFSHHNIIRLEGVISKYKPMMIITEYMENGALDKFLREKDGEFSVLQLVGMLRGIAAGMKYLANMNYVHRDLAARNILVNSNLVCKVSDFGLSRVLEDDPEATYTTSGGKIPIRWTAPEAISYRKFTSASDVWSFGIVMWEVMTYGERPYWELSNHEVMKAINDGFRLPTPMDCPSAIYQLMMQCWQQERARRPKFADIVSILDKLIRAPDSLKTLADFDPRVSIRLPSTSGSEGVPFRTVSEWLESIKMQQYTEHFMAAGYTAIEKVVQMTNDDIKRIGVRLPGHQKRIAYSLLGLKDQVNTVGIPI
Test [9] has as its target G protein-coupled receptor kinase 4 (Homo sapiens) (UniProt P32298). In words: Inhibition of human GRK4 assessed as enzyme activity at 1 uM using casein as substrate preincubated for 20 mins followed by [gamma-33P]-ATP addition and measured after 120 mins by radiometric Hot-SpotSM Kinase assay relative to control.
Test [10] concerns the target Serine/threonine-protein kinase 25 (Homo sapiens) (UniProt O00506). In words: Inhibition of human STK25 assessed as enzyme activity at 1 uM using myelin basic protein as substrate preincubated for 20 mins followed by [gamma-33P]-ATP addition and measured after 120 mins by radiometric Hot-SpotSM Kinase assay relative to control.

Epidermal growth factor receptor (Homo sapiens), sequence (P00533 whole entry): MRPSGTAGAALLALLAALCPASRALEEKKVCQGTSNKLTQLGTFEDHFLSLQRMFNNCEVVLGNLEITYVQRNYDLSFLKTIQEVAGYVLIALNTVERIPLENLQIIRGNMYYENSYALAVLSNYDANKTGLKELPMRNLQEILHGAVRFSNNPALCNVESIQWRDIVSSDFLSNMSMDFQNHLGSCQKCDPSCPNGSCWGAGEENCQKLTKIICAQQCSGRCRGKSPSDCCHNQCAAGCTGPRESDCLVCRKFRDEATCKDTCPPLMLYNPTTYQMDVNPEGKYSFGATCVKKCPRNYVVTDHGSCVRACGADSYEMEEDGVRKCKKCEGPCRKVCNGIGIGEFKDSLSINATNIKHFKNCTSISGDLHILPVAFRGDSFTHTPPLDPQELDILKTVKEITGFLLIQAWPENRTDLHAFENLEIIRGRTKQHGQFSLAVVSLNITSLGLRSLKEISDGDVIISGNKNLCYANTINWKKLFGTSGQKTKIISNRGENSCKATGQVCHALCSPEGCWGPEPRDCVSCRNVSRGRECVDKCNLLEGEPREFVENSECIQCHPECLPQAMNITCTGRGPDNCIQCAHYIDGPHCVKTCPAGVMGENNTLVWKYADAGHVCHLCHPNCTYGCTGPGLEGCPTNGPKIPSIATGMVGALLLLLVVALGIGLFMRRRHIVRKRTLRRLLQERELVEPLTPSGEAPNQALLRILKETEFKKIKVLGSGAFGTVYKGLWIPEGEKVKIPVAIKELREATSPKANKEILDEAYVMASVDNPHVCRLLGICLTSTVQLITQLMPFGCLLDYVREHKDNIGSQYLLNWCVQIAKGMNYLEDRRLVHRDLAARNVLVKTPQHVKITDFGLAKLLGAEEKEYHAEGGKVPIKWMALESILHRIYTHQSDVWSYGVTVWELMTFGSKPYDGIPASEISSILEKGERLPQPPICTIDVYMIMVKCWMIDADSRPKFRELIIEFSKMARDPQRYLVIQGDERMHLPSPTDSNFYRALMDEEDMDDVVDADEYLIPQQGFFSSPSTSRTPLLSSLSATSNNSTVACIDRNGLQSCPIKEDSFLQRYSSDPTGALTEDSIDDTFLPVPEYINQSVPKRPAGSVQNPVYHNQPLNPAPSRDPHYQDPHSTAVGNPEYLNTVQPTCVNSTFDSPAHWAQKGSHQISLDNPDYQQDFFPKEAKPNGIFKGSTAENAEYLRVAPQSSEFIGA

Consider `C[C@H](Nc1ncnc2nc[nH]c12)c1cc2cccc(Cl)c2c(=O)n1-c1ccccc1`, for which the Activity in test [1] turned out to be 96.3%; in [2], 96.1%; in test [3], 99.1%; in test [4], 95.9%; in test [5], 94.2%; in test [6], 98.4%. Further, the Activity in test [7] turned out to be 101%; in [8], 96.3%; in test [9], 92.2%; in test [10], 97%.
For the compound `CC[C@H](Nc1ncnc2[nH]cnc12)c1nc2cccc(F)c2c(=O)n1-c1ccccc1`, the Activity in test [1] turned out to be 94.6%; in [2], 92.3%; in [3] it was 95.4%; in test [4], 97.7%; in test [5] it was 93.1%; in test [6], 99%. Moreover, the Activity in test [7] came out at 95.9%; in [8], 97%; in [9], 93.2%; in test [10], 102%.
For `CC(C)Oc1ccc(-c2nn([C@@H](C)c3oc4ccc(F)cc4c(=O)c3-c3cccc(F)c3)c3ncnc(N)c23)cc1F` [UMBRALISIB], the Activity in [1] is 96.8%; in test [2] it was 92.7%; in test [3], 97.7%; in test [4], 101%; in [5], 93.5%; in test [6], 95.4%. Also, the Activity in test [7] amounted to 99.5%; in test [8] it was 97.2%; in test [9], 95.1%; in [10], 103%.
